Source: US8691187B2, “Imaging agents for detecting neurological disorders” (Eli Lilly and Company, priority 2009, dated 2014)
One block for each compound: values may come before it.

Experiments:
synthetic tau = synthetic tau (Homo sapiens, UniProt P10636); assay: Synthetic tau Kd (F-18 labeled and cold compound, filtration); format: binding
Method: (§1) Pick one brain section for each type and air-dry in hood. A solution of diluted F-18 labeled tracer (40 μCi/mL, 500 μL) which was obtained from the dilution of F-18 tracer with 1×PBS containing 2.5% EtOH and 2.5% DMSO was applied onto each slides to cover the whole tissue section. The resulting slides were incubated at room temperature for 90 minutes, drained, and placed onto a slide holder. The slides were then washed sequentially with 1×PBS for 1 min; 70% EtOH in 1×PBS for 2 min; 30% EtOH in 1×PBS for 2 min; and 1×PBS for 1 min. The slides were dried in the hood for 30 min, and then placed on Fuji imaging plates and exposed overnight. The imaging plates were then scanned and the signal was measured using Fuji software to produce an autoradiography image of the brain section. (PBS—Phosphate Buffer Saline) Protocol for Synthetic Beta-amyloid and Tau Kds
Various concentrations solution of F-18 labeled and its parent cold compound in 1×PBS containing 5% Ethanol and 5% DMSO (pH 7.4) were incubated with synthetic beta-Amyloid or synthetic tau at room temperature in glass tubes for 90 min. The reaction mixture in each tube was filtered under vacuum through a microfiber filter. Each tube was washed with a solution of 20% EtOH in PBS. The PBS wash solution was filtered under vacuum through the filters. Each filter was then washed with a solution of 20% EtOH in PBS and then placed into a gamma counter vial for CPM counting. The data obtained was plotted for Kd determination.

MAO-A = target: T1, MAO-A (Homo sapiens, UniProt P21397); assay: MAO inhibition, MAO-A; format: biochemical
T1 sequence (P21397 1-527): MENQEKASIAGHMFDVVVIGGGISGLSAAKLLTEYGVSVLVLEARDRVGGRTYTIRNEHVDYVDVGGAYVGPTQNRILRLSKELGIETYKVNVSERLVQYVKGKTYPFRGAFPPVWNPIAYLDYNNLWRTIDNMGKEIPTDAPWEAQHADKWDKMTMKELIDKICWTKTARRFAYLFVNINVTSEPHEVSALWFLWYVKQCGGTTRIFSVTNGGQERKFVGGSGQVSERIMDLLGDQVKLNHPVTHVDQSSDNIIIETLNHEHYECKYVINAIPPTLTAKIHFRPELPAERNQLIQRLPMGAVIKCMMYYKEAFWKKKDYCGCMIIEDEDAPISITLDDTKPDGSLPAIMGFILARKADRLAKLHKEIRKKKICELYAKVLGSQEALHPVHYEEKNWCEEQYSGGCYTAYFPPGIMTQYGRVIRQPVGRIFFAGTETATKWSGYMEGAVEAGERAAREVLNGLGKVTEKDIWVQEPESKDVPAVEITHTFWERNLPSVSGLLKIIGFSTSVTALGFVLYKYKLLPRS

human hepatocytes = assay: Stability in human hepatocytes; format: in vitro ADME
human AD brain slices = assay: Human AD brain section autoradiography with F-18 tracer; format: binding; details: for GM Intensity (comp. with W372): compared with W372; for Tx/tau/amyloid correlation: tracer signal vs tau and amyloid load
Source text: Furthermore, the selectivity can be evaluated in brains containing only Aβ plaques/no tau aggregates, Aβ plaques/and tau aggregates, and control brains. Unfortunately, there are no AD brains with only tau and no Aβ present. By testing radiolabeled tracers in these brain sections, one can more quantitative evaluate the relative binding strength (signal strength) and selectivity of various test compounds as they all contain the same radioactive tracer. For examples, if a test tracer binds only to tau, and not amyloid, it should show no signal in the Aβ plaques only brain sections. If a compound binds only to amyloid, it should show uptake in both types of brains. The difficulty of identifying and further quantifying selective compounds lies in the relative abundance of amyloid vs. tau, which is difficult to measure.
Human AD Brain Section Autoradiography
5 micron thick human AD brain slices were first examined using antibodies for Aβ and Tau to determine whether the tested human brain contains Aβ and Tau. Thus, three types of human brain slices were selected for autoradiography: Aβ+/Tau+; Aβ+/Tau−; and Aβ−/Tau−(control).
The experimental protocol is as follows:
as §1

MAO-B = target: T2, MAO-B (Homo sapiens, UniProt P27338); assay: MAO inhibition, MAO-B; format: biochemical
T2 sequence (P27338 1-520): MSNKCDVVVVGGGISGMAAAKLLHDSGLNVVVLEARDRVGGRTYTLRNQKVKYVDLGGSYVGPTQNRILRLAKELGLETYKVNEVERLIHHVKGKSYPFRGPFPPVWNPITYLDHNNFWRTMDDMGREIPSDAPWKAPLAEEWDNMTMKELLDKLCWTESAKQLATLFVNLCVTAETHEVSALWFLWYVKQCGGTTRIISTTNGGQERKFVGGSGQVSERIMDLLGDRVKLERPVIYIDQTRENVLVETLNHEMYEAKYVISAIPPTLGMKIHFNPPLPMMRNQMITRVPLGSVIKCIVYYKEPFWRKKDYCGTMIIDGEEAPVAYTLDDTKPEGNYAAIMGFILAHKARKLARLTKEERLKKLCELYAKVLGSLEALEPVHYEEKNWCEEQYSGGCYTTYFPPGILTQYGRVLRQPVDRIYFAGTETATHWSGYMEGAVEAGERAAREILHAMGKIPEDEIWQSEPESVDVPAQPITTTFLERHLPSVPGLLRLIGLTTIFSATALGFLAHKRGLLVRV

Norepinephrine transp. = Norepinephrine transp. (Homo sapiens, UniProt P23975); assay: CNS selectivity panel, norepinephrine transporter; format: binding
tau/Ab = assay: selectivity (tau/Ab); format: binding
AchE = AchE (Homo sapiens, UniProt P22303); assay: AchE activity; format: biochemical
Monoamine transp. = assay: CNS selectivity panel, monoamine transporter; format: binding
Bombesin BB3 = target: T3, Bombesin BB3 (Homo sapiens, UniProt P32247); assay: CNS selectivity panel, Bombesin BB3; format: binding; details: 10 uM (printed in T777 column)
T3 sequence (P32247 1-399): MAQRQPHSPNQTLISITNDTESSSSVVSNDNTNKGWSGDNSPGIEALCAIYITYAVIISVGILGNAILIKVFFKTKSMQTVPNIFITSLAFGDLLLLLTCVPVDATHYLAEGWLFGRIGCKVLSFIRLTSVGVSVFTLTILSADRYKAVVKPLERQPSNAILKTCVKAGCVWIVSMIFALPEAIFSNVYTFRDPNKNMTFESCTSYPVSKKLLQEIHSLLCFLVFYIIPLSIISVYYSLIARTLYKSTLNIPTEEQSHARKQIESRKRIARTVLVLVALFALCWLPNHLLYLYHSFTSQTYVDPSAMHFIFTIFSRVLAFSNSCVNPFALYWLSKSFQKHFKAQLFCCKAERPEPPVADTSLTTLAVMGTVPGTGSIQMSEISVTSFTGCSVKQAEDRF

[1] = Mouse and rat brain microPET imaging (brain uptake); format: in vivo; details: rats and mice
Method: Mouse and Rat Brain microPET Imaging
Wild type mice and rats were injected intravenously with the candidate tracers. Mice (weight range 25-45 g) were injected with doses between 180 and 300 μCi in 200 uL of saline solution. Rats (weight range 300-400 g) were injected with doses between 300 and 500 μCi of tracer in 400 μL of saline solution. Anesthesia was induced and maintained with Isoflurane. CT and PET scans were performed with a MM INVEON scanner (SIEMENS™). Acquisition for CT images preceded PET scanning and lasted 5 minutes. Only several minutes after the beginning of the PET acquisition, the radioactive dose was injected into the animal through the tail vein. Images were generated as dynamic scans that typically lasted 30 minutes. The initial image analysis consisted of determining whether there was uptake of the tracer in the brain which would establish its ability to cross the blood-brain barrier. All measurements were performed at the time point of 5 minutes following the injection of the tracer. The degree of uptake in the brain was estimated relative to the uptake of the traces in the region of neck muscles. The ratio between the percentage of injected dose per gram in the brain and that of the muscular neck region was provided as an estimate of brain uptake.

AD brain sections = assay: Fluorescent compound staining on human AD brain sections (self-fluorescence, overall binding); details: figure legends; double labeling at 100 uM
Source text: (§2) Native forms of tau (various isoforms, hyperphosphorylated) and amyloid aggregates are present in brain sections and therefore preferred for compound testing. Using the self-fluorescence of a test compound can give an indication of whether the compound binds to tau tangles/PHFs and/or amyloid plaques. This is further confirmed by immunostaining with Aβ and tau antibodies and overlaying the images. […] However, it is possible to “rate” the signal strength qualitatively and distinguish compounds that show binding to these aggregates.
(§3) In one of the embodiments of the present invention, the self-fluorescence of the compound of formula (I) is used to determine whether the compound binds to tau/amyloid in the brain sections and to give it a qualitative rating. The next step is to proceed to the autoradiography using different brain types for further evaluation and quantitation.
(§4) Tau fluorescent compounds staining on human brain sections (Double or triple labeled with tau and β-amyloid Immunohistochemistry (IHC))
(§5) Serial sections (6 μm thick) from OCT-embedded frozen blocks of front lobe were used for staining (OCT—optimal cutting temperature). After fixation and quenching of autofluorescence, tissue sections were incubated with in 100 μM of tau compound in 50% ethanol PBS for 60 min. Then sections were dipped briefly into water, rinsed in PBS, blocked with 5% normal horse serum in PBS for 1 hour at room temperature. After blocking, the tissue was incubated with tau or β-amyloid primary antibody at 4° C. overnight in a humid chamber. Next day, the sections were washed with PBS and then incubated with secondary antibody for 1 hour.

tau aggregates = assay: Fluorescent compound staining on human AD brain sections (tau IHC double labeling); format: binding; details: Table 2 acetylenes; 100 uM compound; qualitative rating + to ++++ or words
Source text: as §2, §3, §4, §5

Aβ plaques = target: T4, Aβ plaques (Homo sapiens, UniProt P05067); assay: Fluorescent compound staining on human AD brain sections (β-amyloid IHC double labeling); format: binding; details: Table 3 benzimidazoles; 100 uM compound; qualitative rating 1+ to 4+ / + to +++
T4 construct: Native forms of tau (various isoforms, hyperphosphorylated) and amyloid aggregates are present in brain sections; from tissue; host or cells: human AD brain, frozen frontal lobe sections
Source text: as §2, §3, §4, §5

Chain of synthetic tau (P10636 whole entry): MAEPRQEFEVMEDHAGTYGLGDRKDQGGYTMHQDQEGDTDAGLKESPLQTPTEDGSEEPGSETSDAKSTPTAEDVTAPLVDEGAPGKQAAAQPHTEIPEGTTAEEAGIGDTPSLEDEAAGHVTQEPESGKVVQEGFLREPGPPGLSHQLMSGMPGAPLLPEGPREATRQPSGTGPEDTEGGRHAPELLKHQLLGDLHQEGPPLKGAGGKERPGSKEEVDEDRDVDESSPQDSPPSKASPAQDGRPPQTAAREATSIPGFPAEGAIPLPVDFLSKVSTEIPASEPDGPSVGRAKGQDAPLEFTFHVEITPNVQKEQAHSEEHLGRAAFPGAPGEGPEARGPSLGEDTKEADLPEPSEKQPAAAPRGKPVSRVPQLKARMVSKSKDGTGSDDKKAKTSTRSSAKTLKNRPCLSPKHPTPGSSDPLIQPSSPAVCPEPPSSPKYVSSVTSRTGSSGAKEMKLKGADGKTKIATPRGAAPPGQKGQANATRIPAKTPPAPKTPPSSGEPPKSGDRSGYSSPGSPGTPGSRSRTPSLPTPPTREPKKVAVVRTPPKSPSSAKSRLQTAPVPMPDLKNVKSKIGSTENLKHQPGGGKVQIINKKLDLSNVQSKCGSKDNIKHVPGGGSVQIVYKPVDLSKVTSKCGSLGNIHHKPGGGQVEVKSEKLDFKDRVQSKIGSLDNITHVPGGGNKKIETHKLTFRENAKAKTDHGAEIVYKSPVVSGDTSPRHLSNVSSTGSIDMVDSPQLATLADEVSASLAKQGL
Chain of AchE (P22303 32-614): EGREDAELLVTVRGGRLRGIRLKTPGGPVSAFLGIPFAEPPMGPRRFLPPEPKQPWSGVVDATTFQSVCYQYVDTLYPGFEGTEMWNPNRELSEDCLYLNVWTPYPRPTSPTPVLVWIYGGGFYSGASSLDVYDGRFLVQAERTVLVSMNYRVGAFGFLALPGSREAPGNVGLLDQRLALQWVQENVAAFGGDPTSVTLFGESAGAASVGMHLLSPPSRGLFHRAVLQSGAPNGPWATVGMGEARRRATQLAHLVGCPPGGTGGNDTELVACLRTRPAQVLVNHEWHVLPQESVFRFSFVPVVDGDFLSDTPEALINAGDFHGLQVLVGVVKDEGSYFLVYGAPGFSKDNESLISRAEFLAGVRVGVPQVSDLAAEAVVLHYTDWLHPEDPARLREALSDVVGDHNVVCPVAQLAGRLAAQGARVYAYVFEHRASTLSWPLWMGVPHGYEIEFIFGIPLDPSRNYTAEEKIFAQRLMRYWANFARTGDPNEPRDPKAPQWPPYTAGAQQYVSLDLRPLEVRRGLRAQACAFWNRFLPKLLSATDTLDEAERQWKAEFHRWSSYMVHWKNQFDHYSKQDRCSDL
Chain of Norepinephrine transp. (P23975 whole entry): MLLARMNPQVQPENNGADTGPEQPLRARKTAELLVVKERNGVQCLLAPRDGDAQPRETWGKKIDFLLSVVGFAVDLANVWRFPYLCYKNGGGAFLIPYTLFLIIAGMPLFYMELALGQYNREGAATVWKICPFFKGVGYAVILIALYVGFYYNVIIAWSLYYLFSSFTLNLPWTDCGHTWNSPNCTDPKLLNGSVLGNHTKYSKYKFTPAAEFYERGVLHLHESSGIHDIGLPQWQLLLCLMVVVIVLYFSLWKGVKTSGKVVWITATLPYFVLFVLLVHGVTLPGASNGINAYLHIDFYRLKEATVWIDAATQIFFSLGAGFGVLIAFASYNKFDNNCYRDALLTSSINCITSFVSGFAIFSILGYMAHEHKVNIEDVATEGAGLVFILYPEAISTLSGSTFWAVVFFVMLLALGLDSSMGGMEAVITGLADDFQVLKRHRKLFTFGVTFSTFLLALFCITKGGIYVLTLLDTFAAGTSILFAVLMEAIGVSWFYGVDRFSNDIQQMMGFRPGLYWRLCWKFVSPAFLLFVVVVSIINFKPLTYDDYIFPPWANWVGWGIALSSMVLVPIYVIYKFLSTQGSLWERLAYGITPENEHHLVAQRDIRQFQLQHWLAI
T4 sequence (P05067 672-713 limits assumed): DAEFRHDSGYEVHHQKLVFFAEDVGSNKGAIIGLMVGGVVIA

SMILES: FCCC1CCN(c2ccn3c(n2)nc2ccccc23)CC1 [Compound T808, 2-(4-(2-fluoroethyl)piperidin-1-yl)benzo[4,5]imidazo[1,2-a]pyrimidine]
inhibition at 1 µM (MAO-A): 22%
human hepatocytes (stability) (human hepatocytes): stable
GM Intensity (comp. with W372) (human AD brain slices): 18%
Tx/tau/amyloid correlation (human AD brain slices): yes
inhibition at 1 µM (MAO-B): 29%
IC50 (Norepinephrine transp.): 820 nM
selectivity (tau/Ab) (tau/Ab): 27×
Kd (synthetic tau; Scheme 6 table): 22 nM
IC50 (AchE): 3000 nM
IC50 (Monoamine transp.): 2700 nM
CNS selectivity panel: Bombesin BB3 (Bombesin BB3): Bombesin BB3 (<20%)
Brain uptake [1]: yes (4 rats, 5 mice)

SMILES: FC1CCN(c2ccn3c(n2)nc2ccccc23)CC1 [Compound T777, 2-(4-fluoropiperidin-1-yl)benzo[4,5]imidazo[1,2-a]pyrimidine]
inhibition at 1 µM (MAO-A): 9%
human hepatocytes (stability) (human hepatocytes): not stable (polar metabolites)
GM Intensity (comp. with W372) (human AD brain slices): 9%
Tx/tau/amyloid correlation (human AD brain slices): yes
inhibition at 1 µM (MAO-B): 0%
CNS selectivity panel: Norepinephrine transp. (Norepinephrine transp.; 10 uM): transp. (42%)
selectivity (tau/Ab) (tau/Ab): 25×
Kd (synthetic tau; Scheme 6 table): 19 nM
IC50 (AchE): 3000 nM
CNS selectivity panel: Monoamine transp. (Monoamine transp.; 10 uM): transp. (49%)
CNS selectivity panel: Bombesin BB3 (Bombesin BB3): Bombesin BB3 (49%)
Brain uptake [1]: yes (4 rats, 4 mice)

SMILES: Nc1ccc(-c2ccnc3nc4ccccc4n23)cc1 [Compound T520, 4-(Benzo[4,5]imidazo[1,2-a]pyrimidin-4-yl)aniline]
binding of fluorescent compound to AD brain sections confirmed by immunostaining with tau or Aβ antibodies (AD brain sections): binding

SMILES: CN(C)c1ccc(C#Cc2nc3ccccc3n2CCF)cc1 [Compound T482, 4-((1-(2-Fluoroethyl)-1H-benzo[d]imidazol-2-yl)ethynyl)-N,N-dimethylaniline]
binding of fluorescent compound to AD brain sections confirmed by immunostaining with tau or Aβ antibodies (AD brain sections): total tau binding
Brain Section Staining: tau (tau aggregates): Mostly binds to Tau

Second part, the compound after the results:

Kd (synthetic tau; Scheme 5 table): 105 nM
SMILES: COc1ccc2nc3cc(-c4ccc(F)nc4)ccn3c2c1 [Compound T663, 3-(6-Fluoropyridin-3-yl)-8-methoxybenzo[4,5]imidazo[1,2-a]pyridine]

binding of fluorescent compound to AD brain sections confirmed by immunostaining with tau or Aβ antibodies (AD brain sections): binding
SMILES: COc1ccc2nc(-c3ccc(N4CCN(CCCF)CC4)cc3)ccc2c1 [Compound T499, 2-(4-(4-(3-Fluoropropyl)piperazin-1-yl)phenyl)-6-methoxyquinoline]

binding of fluorescent compound to AD brain sections confirmed by immunostaining with tau or Aβ antibodies (AD brain sections): binding
SMILES: Cn1c(C#Cc2ccc(NCCCF)cc2)nc2ccccc21 [Compound T540, N-(3-Fluoropropyl)-4-((1-methyl-1H-benzo[d]imidazol-2-yl)ethynyl)aniline]

binding of fluorescent compound to AD brain sections confirmed by immunostaining with tau or Aβ antibodies (AD brain sections): total binding
SMILES: CNc1ccc(-c2ccn3c(n2)nc2ccccc23)cc1.O=C(O)C(F)(F)F.O=C(O)C(F)(F)F [Compound T522, 4-(Benzo[4,5]imidazo[1,2-a]pyrimidin-2-yl)-N-methylaniline bistrifluoracetate]

Brain Section Staining: Aβ (Aβ plaques): no binding
binding of fluorescent compound to AD brain sections confirmed by immunostaining with tau or Aβ antibodies (AD brain sections): binding
SMILES: CN(C)c1ccc(-c2ccc(-c3nc4ccccc4n3CCF)cc2)cc1 [Compound T543, 4′-(1-(2-Fluoroethyl)-1H-benzo[d]imidazol-2-yl)-N,N-dimethyl-[1,1′-biphenyl]-4-amine]
